# Test results from patent US4193913A, “Thermoplastic vinyl chloride polymers containing monoalkyl-tin-stabilizers” (priority 1978, dated 1980).
# Tests used:
# [1] = tin content of 49%; known stabiliser; cited from earlier work
# [2] = Heat stability test on laboratory mill (Example 11); settings: 190° C., 1.0 part stabiliser per 100 parts suspension PVC, 0.5 part montan wax, 1.0 part monoglycerol ester
# Procedure: (§1) A dry blend, consisting of 100 parts of suspension PVC, 0.5 part of montan wax, 1.0 part of monoglycerol ester and 1.0 part of organo-tin stabiliser according to the table below, is milled on a laboratory mill at 190° C. Every 5 minutes, an 0.3 mm thick piece of film is taken off to asist the discolouration.
# [3] = Milling test, plasticised suspension PVC (Example 14); settings: 180° C., 0.5 part by weight stabiliser
# Procedure: A mixture of 100 parts by weight of suspension PVC (K-value 71), 40 parts by weight of di-2-ethylhexyl phthalate, 0.3 part by weight of montan wax and 0.5 part by weight of octyl-tin tris-cetyl-thioglycollate, corresponding to 0.05 g of Sn/100 g of PVC, is milled on a laboratory mill at 180° C. until yellowing beings to occur.
# [4] = Milling test, vinyl chloride/vinyl acetate copolymer (Example 13); settings: 20 minutes at 180° C., 1.35 g stabiliser, 0.13 g of tin per 100 parts of copolymer
# Description: 100 parts of a vinyl chloride/vinyl acetate copolymer (vinyl acetate content 10%, K-value 60 to 61) are premixed with 0.5 part of montan wax, 1.0 part of monoglycerol ester and an organo-tin stabiliser of the formula C8 H17 Sn(SCH2 COO-n-C16 H33)3. The amount of organo-tin stabiliser (1.35 g) is so chosen that 0.13 g of tin are present per 100 parts of copolymer.
# rats [5] = experiment: No effect level, 90-day dietary administration to rats with 28-day recovery; format: in vivo, rat; settings: for no effect level (dietary concentration): diet
# Procedure: Compound III was administered in the diet to groups of 30 (groups 2 and 3) and 40 (group 4) rats at concentrations of 300, 1000 and 3000 ppm respectively (equivalent to an average daily intake of 19, 62 and 179 mg/kg body weight), for not less than 90 days. Forty rats in the control group received the same diet but without the addition of Compound III.
# Ten rats (5+5) from each of groups 1 (control) and 4 (3000 ppm) were retained without treatment for 28 days after the end of the main study, as a recovery experiment.
# rats [6] = experiment: Acute oral LD50 in rats; format: in vivo, rat; settings: for acute oral LD50: rats of both sexes, oral intubation
# Procedure: Compound III was weighed into an Erlenmeyer flask. It was diluted at 30 and 50% with carboxymethylcellulose and administered by oral intubation.
# The compound was tested on 40 rats (20 males/20 females). They were 6 to 7 weeks old and weighed 160 to 180 g.
# The males and females were segregated and housed in Macrolon cages in groups of 5 in a room kept at a constant temperature of 22 ±1° C. and a relative humidity of approximately 50%. They received water and food ad libitum. The rats were starved during one night before starting the treatment. The doses were 3170, 4640, 6000 and 10,000 mg/kg body weight.
# [7] = Heat stability, bulk-polymerised PVC at 0.15 g Sn/100 g PVC (Example 12); settings: 0.3 part montan wax, 0.15 g of Sn/100 g of PVC
# Procedure: as §1
# Moulding materials consisting of 100 parts of bulk-polymerised PVC and 0.3 part of montan wax together with the organo-tin stabilisers according to the table which follows are examined for their heat stability, analogously to Example 11. The amounts of stabiliser are calculated to correspond to the use of 0.15 g of Sn/100 g of PVC.
# [8] = Milling test, impact-modified suspension PVC (Example 15); settings: 190° C.
# Procedure: Experiment 1: A dry blend, consisting of 100 parts by weight of suspension PVC (K-value 58), 1.0 part by weight of wax ester and 0.2 part by weight of montan wax as the lubricant, 1.0 part by weight of acrylic resin as a processing aid, 12.0 parts by weight of MBS modifying resin, as an additive to improve impact strength, and 0.8 part by weight of methyl-tin tris-(myristyl-thioglycollate), corresponding to 0.09 part of tin, is milled on a laboratory mill at 190° C. Every 5 minutes, an 0.3 mm thick piece of film is removed to assess the discolouration.
# Experiment 2: The above experiment is repeated with 1.1 parts by weight of the same stabiliser, corresponding to 0.13 part of tin. The very slight yellow discolouration in this case occurs after 20 minutes, and the light yellow discolouration after 25 minutes.
# [9] = 300, 1000 and 3000 ppm in diet, not less than 90 days
# [10] = 0.8 part by weight stabiliser, 0.09 part of tin (Experiment 1)
# [11] = 1.1 parts by weight stabiliser, 0.13 part of tin (Experiment 2)
compound,measurement,setting,value
butylthiostannonic acid,stabiliser effect relative to tin content,[1],relatively slight effect
butyl:tin tris(alfyl(14)-thioglycollate) [Example 5],Heat stability of the moulding material (time to recognisable colour change to light brown-yellow),[2],25 min
"CCCCCCCCCCCCCCCCOC(=O)C[S][Sn]([CH2]CCCCCCC)([S]CC(=O)OCCCCCCCCCCCCCCCC)[S]CC(=O)OCCCCCCCCCCCCCCCC [Example 10, octyl-tin tris-(cetyl-thioglycollate)]",time until a very slight yellowing is just detectable,"[3]; 0.05 g of Sn/100 g of PVC, 40 parts di-2-ethylhexyl phthalate",74 min
same,appearance of the mill hide after 105 minutes,[3]; 105 minutes,slightly yellow
same,yellowing detectable after milling,[4],only very slight yellowing is detectable
same,Heat stability of the moulding material (time to recognisable colour change to light brown-yellow),[2],25 min
"CCCCCCCCCCCCCCOC(=O)C[S][Sn]([CH2]CCCCCCC)([S]CC(=O)OCCCCCCCCCCCCCC)[S]CC(=O)OCCCCCCCCCCCCCC [Compound III, n-C8 H17 Sn(SCH2 COO-n-C14 H29)3]","clinical symptoms, 90-day diet study",rats [5]; [9],no clinical symptoms were recorded
same,"deaths, 90-day diet study",rats [5]; [9],No deaths occured
same,"body weight gains, food consumption, laboratory parameters, organ weight data after recovery","rats [5]; group 4 (3000 ppm) versus control, 28 days recovery",no significant difference
same,histopathological changes after recovery,"rats [5]; group 4 (3000 ppm), 28 days recovery",No histopathological changes were seen
same,body weight gain,"rats [5]; male rats, 3000 ppm, following day 14, versus untreated controls",gained less body weight than untreated controls
same,body weights at termination of treatment,"rats [5]; male rats, 3000 ppm, versus untreated control animals",slightly below those from untreated control animals
same,no effect level (dietary concentration),"rats [5]; rats, not less than 90 days",3000 ppm
same,no effect level as average daily intake,"rats [5]; rats, equivalent to 3000 ppm in diet, 129600 min",179 mg/kg body weight
same,feed consumption,rats [5]; top dose rats (3000 ppm),decreased feed consumption
same,"mortality, acute test","rats [6]; 3170, 4640, 6000 and 10,000 mg/kg body weight, 14 days",No animal died
same,"autopsy findings, acute test","rats [6]; killed animals, 3170 to 10,000 mg/kg",no substance related gross organ changes were seen
same,acute toxicity grading,"rats [6]; rat, oral",slight acute toxicity
same,acute oral LD50,rats [6]; 14 days,"greater than 10,000 mg/kg"
butyl-tin tris(alfyl(12)-thioglycollate) [Example 4],Time in minutes for which the films remain colourless,[7],30 min
octyl-tin tris(alfyl(14)-thioglycollate) [Example 9],Time in minutes for which the films remain colourless,[7],35 min
"CCCCCCCCCCCCOC(=O)C[S][Sn]([CH2]CCC)([S]CC(=O)OCCCCCCCCCCCC)[S]CC(=O)OCCCCCCCCCCCC [Example 2, butyl-tin tris-(lauryl-thioglycollate)]",Time in minutes for which the films remain colourless,[7],25 min
"CCCCCCC[CH2][Sn]([S]CC(=O)OCCCCCC(C)C)([S]CC(=O)OCCCCCC(C)C)[S]CC(=O)OCCCCCC(C)C [Compound II, n-C8 H17 Sn(SCH2 COO-i-C8 H17)3, reference compound]",no effect level (dietary concentration),"rats [5]; rats, not less than 90 days",500 ppm
same,acute oral LD50,rats [6]; 14 days,5000 mg/kg
"CCCCCCCCCCCCCCCCOC(=O)C[S][Sn]([CH2]CCC)([S]CC(=O)OCCCCCCCCCCCCCCCC)[S]CC(=O)OCCCCCCCCCCCCCCCC [Example 3, butyl-tin tris-(cetyl-thioglycollate)]",Time in minutes for which the films remain colourless,[7],35 min
"CCCCCCCCCCCCCCOC(=O)C[S][Sn]([CH3])([S]CC(=O)OCCCCCCCCCCCCCC)[S]CC(=O)OCCCCCCCCCCCCCC [Example 1, methyl-tin tris-(myristyl-thioglycollate)]",milling time to reach a light yellow discolouration,[8]; [10],20 min
same,milling time to reach a very slight yellow discolouration,[8]; [10],15 min
same,milling time to light yellow discolouration,[8]; [11],25 min
same,milling time to very slight yellow discolouration,[8]; [11],20 min
same,Heat stability of the moulding material (time to recognisable colour change to light brown-yellow),[2],25 min
"CCC[CH2][Sn]([S]CC(=O)OCCCCCCCCCCCCCCCC(C)C)([S]CC(=O)OCCCCCCCCCCCCCCCC(C)C)[S]CC(=O)OCCCCCCCCCCCCCCCC(C)C [Example 8, butyl-tin tris-(i-octadecyl thioglycollate)]",Time in minutes for which the films remain colourless,[7],30 min
"CCCCCCC[CH2][Sn]([CH2]CCCCCCC)([S]CC(=O)OCCCCCC(C)C)[S]CC(=O)OCCCCCC(C)C [Compound I, (n-C8 H17)2 Sn(SCH2 COO-i-C8 H17)2, reference compound]",no effect level (dietary concentration),"rats [5]; rats, not less than 90 days",25 ppm
same,acute oral LD50,rats [6]; 14 days,2000 mg/kg
